ChEMBL document CHEMBL1201862, “PubChem BioAssay data set” (2004)
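Method: 48-hour compound exposure of cells in 96-well plates, five concentrations, linear interpolation of endpoints. The concentration for 50% growth inhibition is given as GI50.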 Active and inactive are the calls of the source. No stated cut-off is given here; in the data, active = GI50 up to about 1.1 µM and inactive = higher.

Experiments:
Experiment in all cases: DTP human tumour cell line panel, 48 h
HL-60 = tested on: HL-60
T47D = tested on: T47D
BT-549 = tested on: BT-549
LOX IMVI = tested on: LOX IMVI
COLO 205 = tested on: COLO 205
OVCAR-3 = tested on: OVCAR-3
IGROV-1 = tested on: IGROV-1
SK-MEL-2 = tested on: SK-MEL-2
ACHN = tested on: ACHN
NCI-H460 = tested on: NCI-H460
TK-10 = tested on: TK-10
SF-268 = tested on: SF-268
A498 = tested on: A498
Hs-578T = tested on: Hs-578T
HCT-15 = tested on: HCT-15
UACC-62 = tested on: UACC-62
OVCAR-5 = tested on: OVCAR-5
UACC-257 = tested on: UACC-257
NCI/ADR-RES = tested on: NCI/ADR-RES

Compound | GI50 (HL-60) | GI50 (T47D) | GI50 (BT-549) | GI50 (LOX IMVI) | GI50 (COLO 205) | GI50 (OVCAR-3) | GI50 (IGROV-1) | GI50 (SK-MEL-2) | GI50 (ACHN) | GI50 (NCI-H460) | GI50 (TK-10) | GI50 (SF-268) | GI50 (A498) | GI50 (Hs-578T) | GI50 (HCT-15) [µM] | GI50 (UACC-62) | GI50 (OVCAR-5) | GI50 (UACC-257) | GI50 (NCI/ADR-RES)
CC(C)OP(=O)(OC(C)C)C(C(C)C)N(C)/C(N)=N\C1=NC(C(F)(F)F)(C(F)(F)F)N=C(C(C(F)(F)F)C(F)(F)F)O1 (stereo unspecified) | 1.12 µM (inactive) | 3.01 µM (inactive) | 2.79 µM (inactive) | 1.79 µM (inactive) | 1.8 µM (inactive) | 3.27 µM (inactive) | 2.39 µM (inactive) | 9.44 µM (inactive) | 2.59 µM (inactive) | 2.64 µM (inactive) | 3.61 µM (inactive) | 2.62 µM (inactive) | 5.2 µM (inactive) | 4.99 µM (inactive) | 3.75 | 2.01 µM (inactive) | 2.55 µM (inactive) | 3.05 µM (inactive) | 
CCc1cc(-c2nsc(=O)o2)c(S(=O)(=O)CC)s1 | 0.951 µM (active) | 76.7 µM (inactive) |  | 56.6 µM (inactive) | > 100 µM (inactive) | > 100 µM (inactive) | 34 µM (inactive) | 95.5 µM (inactive) | > 100 µM (inactive) | > 100 µM (inactive) | > 100 µM (inactive) | 86.9 µM (inactive) | > 100 µM (inactive) | > 100 µM (inactive) | 52.7 |  | > 100 µM (inactive) |  | > 100 µM (inactive)
O=S(=O)(O)c1cc(Cl)c(O)c2ncc(Cl)cc12 |  | > 100 µM (inactive) | 79.4 µM (inactive) | 31 µM (inactive) | > 100 µM (inactive) | 69.2 µM (inactive) | 35.4 µM (inactive) | > 100 µM (inactive) | 76 µM (inactive) | 55.5 µM (inactive) |  |  | > 100 µM (inactive) |  | 41.7 | 50.1 µM (inactive) | > 100 µM (inactive) | > 100 µM (inactive) | 32.8 µM (inactive)
CC(C)OCC(O)COc1cc(=O)oc2ccccc12 (stereo unspecified) | > 100 µM (inactive) | > 100 µM (inactive) |  | > 100 µM (inactive) | > 100 µM (inactive) | > 100 µM (inactive) | > 100 µM (inactive) | > 100 µM (inactive) | > 100 µM (inactive) | > 100 µM (inactive) | > 100 µM (inactive) | > 100 µM (inactive) |  | > 100 µM (inactive) | > 100 | > 100 µM (inactive) | > 100 µM (inactive) | > 100 µM (inactive) | > 100 µM (inactive)
COc1ccc2nc3cc(Cl)ccc3c(NCCCN(Cc3cc(OC)c(OC)c(OC)c3)Cc3cc(OC)c(OC)c(OC)c3)c2c1 |  | 23 µM (inactive) | 14.1 µM (inactive) |  | 4.3 µM (inactive) | 19 µM (inactive) | 15.3 µM (inactive) | 25.1 µM (inactive) | 11.7 µM (inactive) | 6.84 µM (inactive) | 23.1 µM (inactive) | 13.5 µM (inactive) |  | 8.55 µM (inactive) | > 10 | 18.4 µM (inactive) | 13.3 µM (inactive) | 13.9 µM (inactive) | 23.4 µM (inactive)
N=NCC(=O)OC(COCc1ccccc1)COCc1ccccc1 | 56.6 µM (inactive) |  | > 100 µM (inactive) | 93.5 µM (inactive) | 96.4 µM (inactive) | > 100 µM (inactive) | > 100 µM (inactive) | > 100 µM (inactive) | 25.9 µM (inactive) | 7.1 µM (inactive) | > 100 µM (inactive) | > 100 µM (inactive) | > 100 µM (inactive) |  | > 100 | > 100 µM (inactive) | > 100 µM (inactive) | > 100 µM (inactive) | 
Cc1ccc(S(=O)(=O)N/N=C2\C=CC3(CC2)C(=O)N(I)c2ccccc23)cc1 (stereo unspecified) |  | > 100 µM (inactive) |  | > 100 µM (inactive) | > 100 µM (inactive) | > 100 µM (inactive) |  | 48.1 µM (inactive) | > 100 µM (inactive) | 94.4 µM (inactive) | > 100 µM (inactive) | 90.6 µM (inactive) | > 100 µM (inactive) |  | > 100 | > 100 µM (inactive) | > 100 µM (inactive) | > 100 µM (inactive) | > 100 µM (inactive)
Cc1ccc(S(=O)(=O)Nn2c(O)c(C#N)c(-c3ccc([N+](=O)[O-])cc3)c(C#N)c2=O)cc1 | > 100 µM (inactive) |  | > 100 µM (inactive) | > 100 µM (inactive) | > 100 µM (inactive) |  | > 100 µM (inactive) | > 100 µM (inactive) | > 100 µM (inactive) | > 100 µM (inactive) | > 100 µM (inactive) | > 100 µM (inactive) | > 100 µM (inactive) |  | > 100 | > 100 µM (inactive) | > 100 µM (inactive) | > 100 µM (inactive) | > 100 µM (inactive)
COc1c(C(=O)/C(=N/Nc2ccccc2)C(C)=O)c(O)c(OC)c2occc12 | 22.6 µM (inactive) | 19.3 µM (inactive) |  | 45.9 µM (inactive) | 32.2 µM (inactive) | 67.9 µM (inactive) | 67.9 µM (inactive) | 67 µM (inactive) | 50.4 µM (inactive) | 38.8 µM (inactive) | 77.1 µM (inactive) | > 100 µM (inactive) |  | 37.5 µM (inactive) | 56.2 | 20.5 µM (inactive) | > 100 µM (inactive) | 34.9 µM (inactive) | 56.5 µM (inactive)
